Where a name gives a salt, the structure may show the parent alone. Read-outs that look alike come from different tables or passages of the source. One block for each compound: values may come before it.
What was measured:
[1] = Stability to Human Plasma (HPLC, 37° C.); format: in vitro ADME; details: for half-life: 0.02 ml of 6.3 mg/ml prodrug solution added to 2.5 ml plasma
Protocol: Freshly prepared plasma (2.5 ml) was incubated at 37° C. and 0.02 ml of a 6.3 mg/ml solution of the prodrug compound in water was added. Aliquots of plasma were taken for HPLC analysis at zero time and at intervals thereafter. Samples were quenched with chilled methanol, the resulting precipitate was centrifuged at 4° C. at 800 rpm for 5 minutes, and the supernatant was analysed by HPLC.

[2] = pharmaceutically acceptable solvents; cited from earlier work
[3] = test system: antiproliferative activity of cis-diaminedichloroplatinum II (cis-DDP); details: in vivo, with cis-DDP; cited from earlier work
[4] = test system: calcium- and phospholipid dependent protein kinase (protein kinase C); details: in vivo; cited from earlier work
[5] = test system: antiproliferative activity of cis-diaminedichloroplatinum II (cis-DDP); details: in vitro, with cis-DDP; cited from earlier work
[6] = test system: calcium- and phospholipid dependent protein kinase (protein kinase C); details: in vitro; cited from earlier work

pH of solution in water (10 mg/ml solution in water): approximately 7
period for which the solution is stable (10 mg/ml solution in water, -20° C.): at least 12 weeks
pH of solution in dextrose (diluted into dextrose, final prodrug concentration 1 mg/ml): approximately 6
Compound: 3'/4'-((N-Carboxymethyl)carbamoyloxy)-3,4'(3'),5,7-tetrahydroxy-flavone, N-Methyl-D-glucamine salt

Compound: O=C(O)CNC(=O)Oc1cc(-c2oc3cc(O)cc(O)c3c(=O)c2O)ccc1O [3' carbamate ester, 3'-((N-Carboxymethyl)carbamoyloxy)-3,4',5,7-tetrahydroxyflavone, N-Methyl-D-glucamine salt]
conversion into Quercetin [1]: converted into Quercetin
half-life [1]: ~1 h

Compound: O=C(O)CNC(=O)Oc1ccc(-c2oc3cc(O)cc(O)c3c(=O)c2O)cc1O [4' carbamate ester]
conversion into Quercetin [1]: converted into Quercetin
half-life [1]: ~1 h

Compound: O=c1c(O)c(-c2ccc(O)c(O)c2)oc2cc(O)cc(O)c12 [Quercetin, 3,3',4',5,7-pentahydroxyflavone]
solubility [2]: limited solubility
enhancement of antiproliferative activity of cis-DDP [3]: synergistically enhances the antiproliferative activity
inhibition of protein kinase C activity [4]: inhibit the activity
enhancement of antiproliferative activity of cis-DDP [5]: synergistically enhances the antiproliferative activity
inhibition of protein kinase C activity [6]: inhibit the activity

From patent US6258840A, “Analogues or derivatives of quercetin (prodrugs)” (Cobra Therapeutics Limited, priority 1996, dated 2001)
